In the NIST ThermoML archive (doi:10.1021/je900596d):

Settings: for mass density: Vibrating tube method; for vapor or sublimation pressure: Closed cell (Static) method

FC(F)=C(F)C(F)(F)F [hexafluoropropene]
Settings	mass density [kg/m3]
355.27 K, 1594.4 kPa, Fluid (supercritical or subcritical phases)	103.05
355.27 K, 1615.6 kPa, Fluid (supercritical or subcritical phases)	104.91
355.27 K, 1637.4 kPa, Fluid (supercritical or subcritical phases)	106.88
355.27 K, 1658.5 kPa, Fluid (supercritical or subcritical phases)	108.66
355.27 K, 1679.5 kPa, Fluid (supercritical or subcritical phases)	110.49
355.27 K, 1700.6 kPa, Fluid (supercritical or subcritical phases)	112.4
355.27 K, 1722 kPa, Fluid (supercritical or subcritical phases)	114.41
355.27 K, 1742.9 kPa, Fluid (supercritical or subcritical phases)	116.28
355.27 K, 1765.2 kPa, Fluid (supercritical or subcritical phases)	118.41
355.27 K, 1787.1 kPa, Fluid (supercritical or subcritical phases)	120.47
355.27 K, 1808.3 kPa, Fluid (supercritical or subcritical phases)	122.49
355.27 K, 1829.9 kPa, Fluid (supercritical or subcritical phases)	124.54
355.27 K, 1850.6 kPa, Fluid (supercritical or subcritical phases)	126.59
355.27 K, 1872.5 kPa, Fluid (supercritical or subcritical phases)	128.81
355.27 K, 1894.5 kPa, Fluid (supercritical or subcritical phases)	131.08
355.27 K, 1916.5 kPa, Fluid (supercritical or subcritical phases)	133.35
355.27 K, 1938.7 kPa, Fluid (supercritical or subcritical phases)	135.65
355.27 K, 1959.7 kPa, Fluid (supercritical or subcritical phases)	137.89
355.27 K, 1982.8 kPa, Fluid (supercritical or subcritical phases)	140.34
355.27 K, 2005.5 kPa, Fluid (supercritical or subcritical phases)	142.79
355.27 K, 2026.6 kPa, Fluid (supercritical or subcritical phases)	145.09
355.27 K, 2048.1 kPa, Fluid (supercritical or subcritical phases)	147.46
355.27 K, 2070.2 kPa, Fluid (supercritical or subcritical phases)	150.03
355.27 K, 2091.7 kPa, Fluid (supercritical or subcritical phases)	152.48
355.27 K, 2135.3 kPa, Fluid (supercritical or subcritical phases)	157.72
355.27 K, 2158.3 kPa, Fluid (supercritical or subcritical phases)	160.53
355.27 K, 2179.4 kPa, Fluid (supercritical or subcritical phases)	163.15
355.27 K, 2202.1 kPa, Fluid (supercritical or subcritical phases)	165.99
355.27 K, 2224 kPa, Fluid (supercritical or subcritical phases)	168.96
355.27 K, 2247.3 kPa, Fluid (supercritical or subcritical phases)	172.07
355.27 K, 2269.2 kPa, Fluid (supercritical or subcritical phases)	174.95
355.27 K, 2292 kPa, Fluid (supercritical or subcritical phases)	178.14
355.27 K, 2312.5 kPa, Fluid (supercritical or subcritical phases)	181.03
355.27 K, 2334.2 kPa, Fluid (supercritical or subcritical phases)	184.18
355.27 K, 2357.3 kPa, Fluid (supercritical or subcritical phases)	187.61
355.27 K, 2380.5 kPa, Fluid (supercritical or subcritical phases)	191.26
355.27 K, 2392.5 kPa, Fluid (supercritical or subcritical phases)	193.1
355.27 K, 2415.5 kPa, Fluid (supercritical or subcritical phases)	196.68
355.27 K, 2439.9 kPa, Fluid (supercritical or subcritical phases)	200.64
355.27 K, 2460.5 kPa, Fluid (supercritical or subcritical phases)	204.27
355.27 K, 2484.5 kPa, Fluid (supercritical or subcritical phases)	208.35
355.27 K, 2507 kPa, Fluid (supercritical or subcritical phases)	212.34
355.27 K, 2520.2 kPa, Fluid (supercritical or subcritical phases)	214.82
355.27 K, 2544.4 kPa, Fluid (supercritical or subcritical phases)	219.44
355.27 K, 2556.6 kPa, Fluid (supercritical or subcritical phases)	221.88
355.27 K, 2578.3 kPa, Fluid (supercritical or subcritical phases)	226.29
355.27 K, 2599.8 kPa, Fluid (supercritical or subcritical phases)	230.72
355.27 K, 2622.7 kPa, Fluid (supercritical or subcritical phases)	235.78
355.27 K, 2645.2 kPa, Fluid (supercritical or subcritical phases)	240.85
355.27 K, 2666.2 kPa, Fluid (supercritical or subcritical phases)	245.89
355.27 K, 2688.5 kPa, Fluid (supercritical or subcritical phases)	251.47
355.27 K, 2710.9 kPa, Fluid (supercritical or subcritical phases)	257.56
355.27 K, 2733.3 kPa, Fluid (supercritical or subcritical phases)	263.91
355.27 K, 2754.7 kPa, Fluid (supercritical or subcritical phases)	270.59
355.27 K, 2776.5 kPa, Fluid (supercritical or subcritical phases)	277.69
355.27 K, 2797.6 kPa, Fluid (supercritical or subcritical phases)	285.33
355.27 K, 2818.7 kPa, Fluid (supercritical or subcritical phases)	293.63
355.27 K, 2839.2 kPa, Fluid (supercritical or subcritical phases)	302.86
355.27 K, 2859.6 kPa, Fluid (supercritical or subcritical phases)	313.18
355.27 K, 2880.7 kPa, Fluid (supercritical or subcritical phases)	325.44
355.27 K, 2900.2 kPa, Fluid (supercritical or subcritical phases)	339.29
355.27 K, 2901.3 kPa, Fluid (supercritical or subcritical phases)	340.48
355.27 K, 2902.9 kPa, Fluid (supercritical or subcritical phases)	341.95
355.27 K, 2904 kPa, Fluid (supercritical or subcritical phases)	342.82
355.27 K, 2905.6 kPa, Fluid (supercritical or subcritical phases)	344.36
355.27 K, 2906.7 kPa, Fluid (supercritical or subcritical phases)	345.34
355.27 K, 2908.4 kPa, Fluid (supercritical or subcritical phases)	347.2
355.27 K, 2909.4 kPa, Fluid (supercritical or subcritical phases)	348.62
355.27 K, 2910.6 kPa, Fluid (supercritical or subcritical phases)	349.91
355.27 K, 2911.7 kPa, Fluid (supercritical or subcritical phases)	352.16
355.27 K, 2913.4 kPa, Fluid (supercritical or subcritical phases)	357.67
355.27 K, 2914.7 kPa, Fluid (supercritical or subcritical phases)	388.98
355.27 K, 2915.5 kPa, Fluid (supercritical or subcritical phases)	400.54
357.01 K, 3028.5 kPa, Liquid	789.77
357.01 K, 3030.8 kPa, Liquid	791.93
357.01 K, 3032.9 kPa, Liquid	793.76
357.01 K, 3035 kPa, Liquid	795.08
357.01 K, 3037.1 kPa, Liquid	796.63
357.01 K, 3039.5 kPa, Liquid	798.44
357.01 K, 3041.7 kPa, Liquid	799.96
357.01 K, 3044 kPa, Liquid	801.6
357.01 K, 3046 kPa, Liquid	802.75
357.01 K, 3052 kPa, Liquid	806.74
357.01 K, 3055.7 kPa, Liquid	808.82
357.01 K, 3059.3 kPa, Liquid	810.72
357.01 K, 3062.9 kPa, Liquid	812.63
357.01 K, 3066.3 kPa, Liquid	814.7
357.01 K, 3069.9 kPa, Liquid	816.53
357.01 K, 3073.4 kPa, Liquid	818.11
357.01 K, 3077.1 kPa, Liquid	819.71
357.01 K, 3081.1 kPa, Liquid	821.77
357.01 K, 3084.7 kPa, Liquid	823.28
357.01 K, 3088.4 kPa, Liquid	824.79
357.01 K, 3095.6 kPa, Liquid	828.01
357.01 K, 3097.6 kPa, Liquid	828.88
357.01 K, 3104.3 kPa, Liquid	831.16
357.01 K, 3114.1 kPa, Liquid	834.77
357.01 K, 3123.9 kPa, Liquid	838.1
357.01 K, 3133.7 kPa, Liquid	841.6
357.01 K, 3153.7 kPa, Liquid	847.97
357.01 K, 3163.8 kPa, Liquid	850.53
357.01 K, 3173.8 kPa, Liquid	853.47
357.01 K, 3184.9 kPa, Liquid	856.37
357.01 K, 3195 kPa, Liquid	858.9
357.01 K, 3205.2 kPa, Liquid	861.29
357.01 K, 3230.2 kPa, Liquid	866.99
357.01 K, 3243.1 kPa, Liquid	869.66
357.01 K, 3256.4 kPa, Liquid	872.23
357.01 K, 3269.5 kPa, Liquid	874.91
357.01 K, 3282.6 kPa, Liquid	877.54
357.01 K, 3295.4 kPa, Liquid	879.85
357.01 K, 3307.9 kPa, Liquid	882.22
357.01 K, 3320.3 kPa, Liquid	884.31
357.01 K, 3334 kPa, Liquid	886.47
357.01 K, 3347.2 kPa, Liquid	888.84
357.01 K, 3373.4 kPa, Liquid	892.84
357.01 K, 3387.8 kPa, Liquid	895.05
357.01 K, 3400.4 kPa, Liquid	896.81
357.01 K, 3418.8 kPa, Liquid	899.41
357.01 K, 3438.2 kPa, Liquid	902.07
357.01 K, 3457.5 kPa, Liquid	904.69
357.01 K, 3477.9 kPa, Liquid	907.3
357.01 K, 3514.9 kPa, Liquid	911.85
357.01 K, 3540.5 kPa, Liquid	914.94
357.01 K, 3590.4 kPa, Liquid	920.73
357.01 K, 3614.6 kPa, Liquid	923.49
357.01 K, 3639.2 kPa, Liquid	926.14
357.01 K, 3664.9 kPa, Liquid	928.77
357.01 K, 3689.5 kPa, Liquid	931.28
357.01 K, 3714.8 kPa, Liquid	933.72
357.01 K, 3740.1 kPa, Liquid	936.03
357.01 K, 3764.8 kPa, Liquid	938.27

Liquid
Settings	vapor or sublimation pressure [kPa]
356.24 K	2965.3
356.76 K	2998.5
